Results published in the NIST ThermoML archive (doi:10.1021/je400055v).
± gives the expanded uncertainty stated by the source.

Experiment: xn = mol fraction of the nth substance listed
Settings: Liquid, Vibrating tube method

Compound: CCCCCCCCCCC [undecane] + CCCCCCC
- mass density (323.09 K, 16000 kPa, x2 = 0.9511): 678.7 ± 0.4 kg/m3
- mass density (323.09 K, 17001 kPa, x2 = 0.9511): 679.6 ± 0.4 kg/m3
- mass density (323.09 K, 18001 kPa, x2 = 0.9511): 680.5 ± 0.4 kg/m3
- mass density (323.09 K, 19000 kPa, x2 = 0.9511): 681.4 ± 0.4 kg/m3
- mass density (323.09 K, 20000 kPa, x2 = 0.9511): 682.3 ± 0.4 kg/m3
- mass density (323.09 K, 21001 kPa, x2 = 0.9511): 683.1 ± 0.4 kg/m3
- mass density (323.09 K, 22000 kPa, x2 = 0.9511): 683.9 ± 0.4 kg/m3
- mass density (323.09 K, 23001 kPa, x2 = 0.9511): 684.8 ± 0.5 kg/m3
- mass density (323.09 K, 24000 kPa, x2 = 0.9511): 685.6 ± 0.5 kg/m3
- mass density (323.09 K, 25000 kPa, x2 = 0.9511): 686.3 ± 0.5 kg/m3
- mass density (323.11 K, 2001 kPa, x2 = 0.5063): 695.8 ± 0.3 kg/m3
- mass density (323.11 K, 3000 kPa, x2 = 0.5063): 696.8 ± 0.3 kg/m3
- mass density (323.11 K, 4000 kPa, x2 = 0.5063): 697.8 ± 0.3 kg/m3
- mass density (323.11 K, 5000 kPa, x2 = 0.5063): 698.8 ± 0.3 kg/m3
- mass density (323.11 K, 6000 kPa, x2 = 0.5063): 699.7 ± 0.3 kg/m3
- mass density (323.11 K, 7000 kPa, x2 = 0.5063): 700.7 ± 0.3 kg/m3
- mass density (323.11 K, 8001 kPa, x2 = 0.5063): 701.6 ± 0.3 kg/m3
- mass density (323.11 K, 9000 kPa, x2 = 0.5063): 702.5 ± 0.3 kg/m3
- mass density (323.11 K, 10000 kPa, x2 = 0.5063): 703.4 ± 0.3 kg/m3
- mass density (323.11 K, 11000 kPa, x2 = 0.5063): 704.3 ± 0.3 kg/m3
- mass density (323.11 K, 12000 kPa, x2 = 0.5063): 705.1 ± 0.3 kg/m3
- mass density (323.11 K, 13000 kPa, x2 = 0.5063): 706 ± 0.3 kg/m3
- mass density (323.11 K, 14000 kPa, x2 = 0.5063): 706.8 ± 0.4 kg/m3
- mass density (323.11 K, 15000 kPa, x2 = 0.5063): 707.6 ± 0.4 kg/m3
- mass density (323.11 K, 16000 kPa, x2 = 0.5063): 708.5 ± 0.4 kg/m3
- mass density (323.11 K, 17001 kPa, x2 = 0.5063): 709.3 ± 0.4 kg/m3
- mass density (323.11 K, 18000 kPa, x2 = 0.5063): 710.1 ± 0.4 kg/m3
- mass density (323.11 K, 19000 kPa, x2 = 0.5063): 710.8 ± 0.4 kg/m3
- mass density (323.11 K, 20000 kPa, x2 = 0.5063): 711.6 ± 0.4 kg/m3
- mass density (323.11 K, 21001 kPa, x2 = 0.5063): 712.4 ± 0.4 kg/m3
- mass density (323.11 K, 22050 kPa, x2 = 0.5063): 713.1 ± 0.4 kg/m3
- mass density (323.11 K, 23000 kPa, x2 = 0.5063): 713.9 ± 0.4 kg/m3
- mass density (323.11 K, 24000 kPa, x2 = 0.5063): 714.6 ± 0.4 kg/m3
- mass density (323.11 K, 25000 kPa, x2 = 0.5063): 715.3 ± 0.4 kg/m3
- mass density (323.12 K, 1000 kPa, x2 = 0.7482): 679.1 ± 0.3 kg/m3
- mass density (323.12 K, 1001 kPa, x2 = 0.05): 716.7 ± 0.3 kg/m3
- mass density (323.12 K, 2000 kPa, x2 = 0.7482): 680.2 ± 0.3 kg/m3
- mass density (323.12 K, 2001 kPa, x2 = 0.05): 717.6 ± 0.3 kg/m3
- mass density (323.12 K, 3000 kPa, x2 = 0.05): 718.5 ± 0.3 kg/m3
- mass density (323.12 K, 3000 kPa, x2 = 0.7482): 681.3 ± 0.3 kg/m3
- mass density (323.12 K, 4000 kPa, x2 = 0.05): 719.4 ± 0.3 kg/m3
- mass density (323.12 K, 4000 kPa, x2 = 0.7482): 682.3 ± 0.3 kg/m3
- mass density (323.12 K, 5000 kPa, x2 = 0.05): 720.3 ± 0.3 kg/m3
- mass density (323.12 K, 5000 kPa, x2 = 0.7482): 683.4 ± 0.3 kg/m3
- mass density (323.12 K, 6000 kPa, x2 = 0.05): 721.1 ± 0.3 kg/m3
- mass density (323.12 K, 6000 kPa, x2 = 0.7482): 684.4 ± 0.3 kg/m3
- mass density (323.12 K, 7000 kPa, x2 = 0.05): 722 ± 0.3 kg/m3
